This is an account of results in patent US3940386A, “Substituted cinnamoyl-piperazine-pyridyl compound” (Cermol S.A., priority 1973, dated 1976).

Structures can show the parent of a compound that is named as a salt.

The nature of series [1]: Toxicity (mice), I.G. (Table III). Type of series: in vivo. Particulars: mouse, in vivo, po. An excerpt: (§1) The products were used in the form of the trihydrochloride, except the product under the letter "b" which was used in the form of the dihydrochloride.
For series [2], the system named is mice. In words: Toxicity (mice), I.G. (Table III). Type of series: in vivo.
Excerpt: as §1

Series [3] can be described thus: Set of methods and tests of the activity of the products (vasodilatatory, spasmolytic, antihistaminic, cholinolytic, sedative, depressant, neurotoxic). An excerpt: The set of methods and tests effected enabled us to appreciate the activity of the products according to the invention. It clearly follows therefrom that the products wherein: […]
For a further series, the system named is cerebral circulation. In words: Cerebral circulation: PO2 of the venous cerebral blood (sinus sagittalis) in cats anaesthetized with Nembutal. As to conditions: intravenous perfusion. Type of series: in vivo. The protocol:
In the course of a series of experiments on cats anaesthetized with Nembutal, the cynetics of PO2 of the venous cerebral blood were measured (from the sinus sagittalis) during an intravenous perfusion of this product.

The test system of the next series is albino rats. In words: Acute toxicity, oral, albino rats (Table II). In kind it is in vivo. Particulars: aqueous solution. The protocol:
(§2) Tests were performed on mice and albino rats, the active compound being administered orally in the form of an aqueous solution.

A short description of series [4]: Acute toxicity, oral, albino rats (Table II). In kind it is in vivo. Particulars: rat, in vivo, aqueous solution. As for the experimental part:
as §2

Series [5] can be described thus: Acute toxicity, oral, mice (Table II). Type of series: in vivo. As to conditions: mouse, in vivo, aqueous solution. The protocol:
as §2

For series [6], the system named is mice. The series is described as follows: Acute toxicity, oral, mice (Table II). Type of series: in vivo. As to conditions: aqueous solution. As for the experimental part: as §2
The nature of series [7]: Acute toxicity on mice, orally and intraperitoneally (Table I). As to conditions: mouse, in vivo, suspended in gum syrup or labrafil. In kind it is in vivo. As for the experimental part:
(§3) Tests were performed on mice, orally (P.O.) and intraperitoneally (I.P.), the active compounds being suspended in gum syrup or labrafil.

Series [8] concerns mice. The description is as above. Type of series: in vivo. As to conditions: for LD0: suspended in gum syrup or labrafil. As for the experimental part:
as §3

For `Fc1ccc(C(c2ccccn2)N2CCN(CC=Cc3ccccc3)CC2)cc1` (stereo not drawn) [1(2'-pyridyl-4"-fluorophenyl)-methyl-4-cinnamyl piperazine], the LD50 (commonly the dose expected to kill half of the subjects tested) in series [1] worked out at 400 mg/kg. This compound returned an LD0 in the series on mice [2] (mouse, in vivo) of 300 mg/kg. For the same compound, in [3], the antihistaminic activity result was “well-defined”, the depressant properties result was “do not show”, the neurotoxic properties result is “do not show” and the spasmolytic activity entry is “well-defined”. The vasodilatatory activity result in series [3] was “well-defined”.

The compound `Clc1ccc(C(c2ccccn2)N2CCN(CC=Cc3ccccc3)CC2)c(Cl)c1` (stereo not drawn) [1-(2'-pyridyl-2",4"-dichlorophenyl)-methyl-4-cinnamyl piperazine trihydrochloride] gave an LD50 in series [1] of 600 mg/kg. The LD0 in the series with mice [2] (mouse, in vivo) came to 400 mg/kg. In addition, in series [3], the antihistaminic activity entry is “well-defined”, the depressant properties entry was “do not show”, the neurotoxic properties result was “do not show” and the spasmolytic activity result is recorded as “well-defined”. Further, the vasodilatatory activity result in series [3] was “well-defined”.

On to `Clc1ccc(C(c2ccccn2)N2CCN(CC=Cc3ccccc3)CC2)cc1` (stereo not drawn) [1-(2'-pyridyl-4"-chlorophenyl)-methyl-4-cinnamyl piperazine], for which, in series [1], the median lethal dose (LD50) came to 1180 mg/kg. Further, the LD0 in the series on mice [2] (mouse, in vivo) worked out at 400 mg/kg. Further, in the series with cerebral circulation, the “activity with respect to cerebral circulation” value is on record as “important activity”. In addition, in series [3], the antihistaminic activity entry was “well-defined”, the depressant properties result is on record as “do not show”, the neurotoxic properties result is “do not show” and the spasmolytic activity result was “well-defined”. Also, the vasodilatatory activity entry in series [3] was “well-defined”.

As for `CC(c1ccc(Cl)cc1)(c1ccccn1)N1CCN(CC=Cc2ccccc2)CC1` (stereo not drawn) [1-(2'-pyridyl-4"-chlorophenylmethyl)-methyl-4-cinnamyl piperazine], the LD50 in series [1] (mice, I.G.) was 500 mg/kg. Further, the LD0 with mice [2] (mice, I.G.) turned out to be 400 mg/kg. Also, the sedative activity result in series [3] is recorded as “presents a sedative activity”.

In the case of `C(=Cc1ccccc1)CN1CCN(C(c2ccccc2)c2ccccn2)CC1` (stereo not drawn) [1-(2'-pyridylphenyl)-methyl-4-cinnamyl piperazine], the LD0 is 200 mg/kg in the series on albino rats and 175 mg/kg in the series with mice [6]. In addition, the LD50 is 1200 mg/kg in series [4] and 295 mg/kg in series [5].

Regarding `C(=Cc1ccccc1)CN1CCN(C(c2ccccc2)C2CC2)CC1` (stereo not drawn) [--CH2 --, 1-(cyclopropylphenyl)-methyl-4-cinnamyl piperazine], in series [7] (po, P.O.), the LD50 came to 570 mg/kg. Moreover, the “LD0” value in the series on mice [8] (P.O.) is given as roughly 300 mg/kg.

With `O=C(C=Cc1ccccc1)N1CCN(C(c2ccccc2)C2CC2)CC1` (stereo not drawn) [C = O, 1-(cyclopropylphenyl)-methyl-4-cinnamoyl piperazine], the LD50 in series [7] (ip, I.P.) is 1480 mg/kg; in [7] (po, P.O.), greater than 4000 mg/kg. The results for the “LD0” value in the series on mice [8] (I.P.) and with mice [8] (P.O.) were greater than 400 mg/kg and greater than 1000 mg/kg, respectively. Further, the toxicity result in the series on mice [8] (in words) was “very low toxicity”.
